One assay deals with T1, EGFR (L858R T790M C797S) (Homo sapiens, UniProt P00533, C797S/L858R/T790M).
T1 construct: purchased SignalChem E10-122VG
Kind of assay: Biochemical EGFR inhibition assay (Caliper mobility shift), EGFR LRTMCS mutant. Particulars: inhibitory activity against EGFR LRTMCS mutant; apparent IC50; read-out: Ext Enz LRTMCS. An outline of the steps: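 Kinase reactions at 25 °C run to 10–20% peptide phosphorylation, stopped with 35 mM EDTA. Phosphorylated product and substrate separated electrophoretically by mobility shift. Apparent IC50 from percent activity versus log compound concentration.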

Assay [1] deals with phosphorylation of EGFR (Tyr1068) in NCI-H1975 cell line that harbors the EGFR L858R T790M mutations. The assay is described as follows: NCI-H1975 pEGFR AlphaLISA assay. It counts as cell-based. Particulars: Homo sapiens, NCI-H1975, inhibition of phosphorylation of mutant EGFR in NCI-H1975 cells; 4-5 hours incubation; read-out: Ext pEGFR H1975. The procedure, abridged:
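Phospho-EGFR Tyr1068 AlphaLISA readout: lysates taken from compound-treated H1975 cells (L858R T790M EGFR) after a 4-5 h exposure at 37 °C. Cells had adhered overnight beforehand. IC50 derived by plotting % pEGFR inhibition against log compound concentration.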
A general note: In Alpha technology, singlet oxygen from a donor bead excites a nearby acceptor bead.

Assay [2] addresses T2, EGFR (D770_N771insNPG T790M) (Homo sapiens, UniProt P00533, INS770NPG/T790M).
T2 construct: purchased SignalChem E10-132TG
The assay is described as follows: Biochemical EGFR inhibition assay (mobility shift), EGFR D770_N771insNPG T790M. Particulars: inhibitory activity against EGFR_D770_N771insNPG/T790M mutant; apparent IC50; read-out: Enz EGFR_D770_N771insNPG/T790M. As to the method: Inhibitory effects of the compounds of the disclosure were measured in biochemical assays that measure the phosphorylation activity of EGFR enzyme phosphorylates 2.5 micromolar 5-FAM-[…]-CONH2 peptide substrate (FL-Peptide 22, PerkinElmer, 760366) in the presence of adenosine-5′-triphosphate (ATP) and varying concentrations of the test compound. […] Reactions proceeded until between 10% to 20% total peptides were phosphorylated at room temperature (25° C.) and were terminated with 35 mM 2,2′,2″,2′″-(ethane-1,2-diyldinitrilo)tetraacetic acid (EDTA). EGFR enzymatic activity was monitored using the Perkin Elmer electrophoretic mobility shift technology platform (the Caliper mobility shift detection method) where the phosphorylated peptide (product) and substrate were electrophoretically separated and measured. Percent activity was plotted against log concentration of compound and points to generate an apparent IC50. The following enzyme forms of EGFR were examples that were used in these assays: • EGFR WT (SignalChem, E10-112G) • EGFR (L858R T790M C797S) (SignalChem, E10-122VG) • EGFR (d746-750) T790M C797S (SignalChem, E10-122UG) • EGFR L858R (SignalChem, E10-122BG) • EGFR (d746-750) (SignalChem, E10-122JG) • EGFR (D770_N771insNPG T790M) (SignalChem, E10-132TG) • EGFR (D770_N771insNPG) (SignalChem, E10-132GG)

A value given as a limit tells only on which side of the number the result lay.

T1 sequence (P00533 25-1210 T790M/C797S/L858R): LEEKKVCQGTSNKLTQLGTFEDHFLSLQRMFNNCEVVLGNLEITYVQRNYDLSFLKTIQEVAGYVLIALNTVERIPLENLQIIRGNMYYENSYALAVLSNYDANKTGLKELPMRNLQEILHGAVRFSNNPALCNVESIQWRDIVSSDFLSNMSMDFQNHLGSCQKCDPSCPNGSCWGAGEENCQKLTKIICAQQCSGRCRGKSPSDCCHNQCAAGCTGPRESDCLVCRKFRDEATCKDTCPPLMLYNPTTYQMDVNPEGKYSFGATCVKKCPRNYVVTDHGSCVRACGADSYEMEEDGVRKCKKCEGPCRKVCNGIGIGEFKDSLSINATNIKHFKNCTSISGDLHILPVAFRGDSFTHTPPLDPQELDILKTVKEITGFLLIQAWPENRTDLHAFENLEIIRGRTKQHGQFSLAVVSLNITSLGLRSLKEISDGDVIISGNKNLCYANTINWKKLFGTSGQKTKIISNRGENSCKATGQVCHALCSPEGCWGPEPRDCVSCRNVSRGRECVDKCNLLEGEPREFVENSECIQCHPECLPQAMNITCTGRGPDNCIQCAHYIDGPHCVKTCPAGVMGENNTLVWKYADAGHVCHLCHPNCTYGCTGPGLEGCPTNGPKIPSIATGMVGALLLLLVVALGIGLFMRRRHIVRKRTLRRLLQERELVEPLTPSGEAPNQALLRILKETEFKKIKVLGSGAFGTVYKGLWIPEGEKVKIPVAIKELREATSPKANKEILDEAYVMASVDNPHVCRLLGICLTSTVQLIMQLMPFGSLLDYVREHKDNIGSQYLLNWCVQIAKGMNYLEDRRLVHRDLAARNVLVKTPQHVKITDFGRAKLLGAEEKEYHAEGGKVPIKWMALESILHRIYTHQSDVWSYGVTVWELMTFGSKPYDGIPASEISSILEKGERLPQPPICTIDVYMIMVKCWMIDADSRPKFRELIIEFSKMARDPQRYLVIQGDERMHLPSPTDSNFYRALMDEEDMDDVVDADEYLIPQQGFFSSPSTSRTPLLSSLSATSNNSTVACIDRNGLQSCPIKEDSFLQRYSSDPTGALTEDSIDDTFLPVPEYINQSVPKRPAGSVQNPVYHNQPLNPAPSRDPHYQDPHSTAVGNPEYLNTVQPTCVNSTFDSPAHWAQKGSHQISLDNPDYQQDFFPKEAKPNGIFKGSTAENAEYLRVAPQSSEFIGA
T2 sequence (P00533 with tags, fused parts or gaps INS770NPG/T790M limits assumed): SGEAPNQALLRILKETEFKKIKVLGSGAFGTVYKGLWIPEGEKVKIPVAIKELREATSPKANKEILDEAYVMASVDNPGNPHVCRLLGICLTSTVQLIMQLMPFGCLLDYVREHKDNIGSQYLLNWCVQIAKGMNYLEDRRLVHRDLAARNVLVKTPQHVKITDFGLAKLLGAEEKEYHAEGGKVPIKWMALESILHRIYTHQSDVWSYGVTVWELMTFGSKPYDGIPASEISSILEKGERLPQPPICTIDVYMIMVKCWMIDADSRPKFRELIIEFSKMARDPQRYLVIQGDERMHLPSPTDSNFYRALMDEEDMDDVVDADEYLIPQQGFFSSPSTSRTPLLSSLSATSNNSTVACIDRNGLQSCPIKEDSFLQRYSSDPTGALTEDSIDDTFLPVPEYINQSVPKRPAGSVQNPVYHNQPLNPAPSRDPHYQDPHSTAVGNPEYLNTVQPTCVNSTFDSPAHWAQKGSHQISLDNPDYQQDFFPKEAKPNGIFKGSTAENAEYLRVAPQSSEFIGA

For `CC(C)c1cnc(N2CC(CS(C)(=O)=O)C2)c2cnc(Nc3ccnc(N4CCOCC4)n3)cc12` [Compound 2, 8-[3-(methanesulfonylmethyl)azetidin-1-yl]-N-[2-(morpholin-4-yl)pyrimidin-4-yl]-5-(propan-2-yl)-2,7-naphthyridin-3-amine], the results for the IC50 (on EGFR (L858R T790M C797S); in assay [1]; in assay [2]) were at most 15 nM, 30.1 to 50 nM and 250 to 750 nM, respectively.

Turning to `CC(C)c1cnc(N2CC(CS(C)(=O)=O)C2)c2cnc(Nc3ccnc(N4C[C@@H](F)[C@@H](F)C4)n3)cc12` [Compound 7, N-{2-[cis-3,4-difluoropyrrolidin-1-yl]pyrimidin-4-yl}-8-[3-(methanesulfonylmethyl)azetidin-1-yl]-5-(propan-2-yl)-2,7-naphthyridin-3-amine], the IC50 at EGFR (L858R T790M C797S) was at most 15 nM; in assay [1] it was 10.1 to 20 nM; in assay [2] it was 250 to 750 nM.

Regarding `CC(C)c1cnc(N2C[C@@H](CS(C)(=O)=O)[C@@H]2C)c2cnc(Nc3ccnc(N4CC[C@@H](O)[C@@](C)(F)C4)n3)cc12` (single isomer, unassigned) [Compound 128], the IC50 on EGFR (L858R T790M C797S) was at most 15 nM; in assay [1], at most 10 nM; in assay [2] it was 20.1 to 100 nM.

Consider `[2H]C([2H])([2H])O[C@@H]1CCN(c2nccc(Nc3cc4c(C(C)C)ncc(N5CC(CS(C)(=O)=O)C5)c4cn3)n2)C[C@@H]1F` [Compound 265, N-{2-[(3S,4R)-3-fluoro-4-(^2H3)methoxypiperidin-1-yl]pyrimidin-4-yl}-8-[3-(methanesulfonylmethyl)azetidin-1-yl]-5-(propan-2-yl)-2,6-naphthyridin-3-amine], for which the IC50 was at most 15 nM at EGFR (L858R T790M C797S), at most 10 nM in assay [1] and 100 to 250 nM in assay [2].

The values above are taken from patent publication US12172983B2, “EGFR inhibitors” (Blueprint Medicines Corporation, priority 2019, dated 2024).
